Assay results as given in article PMC9917184, “Synthesis and Biological Evaluation of Potential Oncoimmunomodulator Agents” (International Journal of Molecular Sciences, 2023).

Assays:
PD-L1 [1] = molecular target: T1, PD-L1 (Homo sapiens, UniProt Q9NZQ7); test: Total PD-L1 relative quantification by flow cytometry in cancer cell lines; type: cell-based; design: Alexa Fluor® 647 Rabbit monoclonal Anti-PD-L1 (ab215251); endogenous in cells; host or cells: HT-29; conditions: 24 h, total PD-L1 relative to negative control (DMSO)
Method: (§1) The effect of these triazole derivates on c-Myc and PD-L1 was measured in three different cancer cell lines (HT-29, MCF-7, A-549) by flow cytometry. Thus, cells were incubated for 24 h with the corresponding compound at a concentration of 100 μM. Dimethyl sulfoxide (DMSO)-treated cells were used as the negative control, and a PD-L1 inhibitor, BMS-8 [29, 31], was used as a reference control. After permeabilization and fixation, cells were treated with anti-PD-L1 conjugated to AlexaFluor®647 and anti-c-Myc conjugated to fluorescein to determine the amount of both targets related to the negative control. Table 1 show the results in terms of the percentage of the detected target in relation to the negative control. This assay was carried out on cancer cell lines HT-29, MCF-7, and A-549.
(§2) To study the effect of the compounds on every biological target in cancer cell lines, the compounds were used at a 100 µM dose.
(§3) For the assay, 10^5 cells per well were incubated for 24 h with the corresponding dose of the tested compound in a total volume of 500 μL of their growth media.
(§4) To detect total PD-L1 and c-Myc, after the cell treatments, they were collected and fixed with 4% in PBS paraformaldehyde. After fixation, a treatment with 0,5% in PBS Triton™ X-100 was performed, and finally, cells were stained with FITC Mouse monoclonal Anti-c-Myc (ab223913) and Alexa Fluor® 647 Rabbit monoclonal Anti-PD-L1 (ab215251).

PD-L1 [2] = molecular target: T1, PD-L1; test: Immunofluorescence microscopy of PD-L1 in MCF-7; type: cell-based; design: Alexa Fluor® 647 Rabbit monoclonal Anti-PD-L1 (ab215251); endogenous in cells; host or cells: MCF-7; conditions: MCF-7, 24 h of treatment
Source text: (§5) We also observed the effect of triazole derivatives 3, 5 and 7 on both targets in MCF-7 by immunofluorescence microscopy (see Figure 2). We stained both targets with anti-PD-L1 conjugated to AlexaFluor®647 (red in Figure 2), as well as anti-c-Myc conjugated to fluorescein (green in Figure 2), to determine the amount of both targets. The nucleus was stained with Hoechst (blue in Figure 2).
(§6) We observed that in the DMSO control, c-Myc was located in the nucleus of the cell and the nucleus membrane nearby, and PD-L1 was preferentially positioned in the membrane or cytosol, favoring the contact between surrounding cells.
(§7) For immunofluorescence microscopy of the microtubule network, […] cells were plated on cover glass and incubated with the selected compounds. Cells were then fixed in 4% formaldehyde (in PBS pH 7.4) for 20 min at room temperature and permeabilized with PBS-Triton X-100 0.5% for 1 min at room temperature. Direct immunostaining was carried out for 1 h at room temperature with FITC Mouse monoclonal Anti-c-Myc (ab223913) and Alexa Fluor® 647 Rabbit monoclonal Anti-PD-L1 (ab215251). Then, cells were washed in PBS, and cover glasses were mounted with a drop of ProLong® antifade solution (Invitrogen). The cytoskeleton was imaged by a confocal laser scanning microscope (CLSM) Leica SP5 with a Leica inverted microscope, equipped with 20x objective. Each image was recorded with the CLSM’s spectral mode selecting specific domains of the emission spectrum. The FITC fluorophore was excited at 488 nm with an argon laser, and its fluorescence emission was collected between 496 nm and 535 nm.

IL-6 = IL-6 secretion to the media by ELISA; type: cell-based, human; conditions: 100 μM, 24 h, control = 100
Method: We determined the effect of these compounds on the secretion of IL-6 in monocultures of MCF-7 cells, to establish the effect on cancer cells in monocultures of immune cells THP-1 and in co-cultures of MCF-7 and THP-1 (1:5 proportion). Assays were performed by ELISA using cell media after treatments with selected compounds at 100 μM for 24 h.

A-549 = A-549 cell viability in co-culture with Jurkat T cells (flow cytometry count); type: cell-based, human; conditions: 24 h; for viability at 100 µM: Homo sapiens, A549, A-549/Jurkat T co-culture, IFN-γ stimulated, read-out: percentage of living A-549 cells relative to non-treated co-cultures
Method: The effect of the synthesized compounds on tumor cell proliferation in the presence of PD-1-expressing Jurkat T cells was also studied. This assay was carried out, as in the previous experiments, in the HT29, MCF7, and A549 cell lines (see Table 4). Interferon γ-stimulated cancer cells were treated for 24 h with the compounds at 100 μM in presence of Jurkat T cells. Then, cells were counted using flow cytometry. The percentage of living cells relative to non-treated co-cultures (control) was established for both cancer and immune cells in every co-culture.
To study the effect of the compounds on the cell viability in co-culture with Jurkat T cells or THP-1 cells, 10^5 or 2 × 10^5 of the corresponding cancer cells line per well were seeded and incubated for 24 h, then the medium was changed by one cell culture medium supplemented with IFN-γ (10 ng/mL; human, Invitrogen®) and containing 5 × 10^5 or 10^5 Jurkat T cells or THP-1, respectively, per well and 100 µM of the corresponding compound or DMSO for the […] control. After 24 h/48 h of incubation, supernatants were collected to determine Jurkat T or THP-1 living cells, and on the other hand, corresponding cancer cells were collected with trypsin. Both types of suspension cells were fixed with 4% in PBS paraformaldehyde and counted by flow cytometry.

c-Myc [3] = test: Total c-Myc relative quantification by flow cytometry in cancer cell lines; type: cell-based, human; conditions: 24 h
Method: as §1, §2, §3, §4

c-Myc [4] = test: Immunofluorescence microscopy of c-Myc in MCF-7; type: cell-based, human; conditions: MCF-7, 24 h of treatment
Source text: as §5, §6, §7

[5] = A-549, 100 µM, relative to negative control (DMSO)
[6] = HT-29, 100 µM, detected target relative to negative control (DMSO)
[7] = MCF-7, 100 µM, relative to negative control (DMSO)

T1 sequence (Q9NZQ7 19-290): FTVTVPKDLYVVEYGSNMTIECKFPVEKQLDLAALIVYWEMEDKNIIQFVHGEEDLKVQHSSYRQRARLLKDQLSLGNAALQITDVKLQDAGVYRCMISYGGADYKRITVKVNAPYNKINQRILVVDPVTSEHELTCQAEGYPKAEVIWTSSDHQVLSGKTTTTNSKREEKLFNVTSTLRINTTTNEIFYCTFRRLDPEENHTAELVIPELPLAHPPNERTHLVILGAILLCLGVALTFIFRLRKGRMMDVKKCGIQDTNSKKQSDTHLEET

COc1ccc(C(OCCc2ccc(CCn3cc(-c4ccccc4Br)nn3)cc2)(c2ccccc2)c2ccc(OC)cc2)cc1 [Compound 7, 1-(4-(2-(bis(4-methoxyphenyl)(phenyl)methoxy)ethyl)phenethyl)-4-(2-bromophenyl)-1H-1,2,3-triazole]
remaining activity at 100 µM (PD-L1 [1]; A549, A-549, 100 µM): 86 ± 20%
remaining activity at 100 µM (PD-L1 [1]; HT-29, 100 µM): 45 ± 7%
remaining activity at 100 µM (PD-L1 [1]; MCF7, MCF-7, 100 µM): 80 ± 4%
PD-L1 localisation (confocal images) (PD-L1 [2]): preferentially in cytosol
Percentage of secreted IL-6 to the media (IL-6; MCF7 + THP-1 co-culture (1:5)): 115 ± 4%
Percentage of secreted IL-6 to the media (IL-6; MCF7 monoculture): 91 ± 39%
Percentage of secreted IL-6 to the media (IL-6; THP-1 monoculture): 158 ± 11%
viability at 100 µM (A-549): 100 ± 4%
% c-Myc (c-Myc [3]; [5]): 67 ± 6%
% c-Myc (c-Myc [3]; [6]): 43 ± 7%
% c-Myc (c-Myc [3]; [7]): 51 ± 3%
c-Myc localisation (confocal images) (c-Myc [4]): aggregated in the nucleus of the cells

COc1ccc(C(OCCc2ccc(CCn3cc(-c4ccc(Br)cc4)nn3)cc2)(c2ccccc2)c2ccc(OC)cc2)cc1 [Compound 3, 1-(4-(2-(bis(4-methoxyphenyl)(phenyl)methoxy)ethyl)phenethyl)-4-(4-bromophenyl)-1H-1,2,3-triazole]
remaining activity at 100 µM (PD-L1 [1]; A549, A-549, 100 µM): 58 ± 10%
remaining activity at 100 µM (PD-L1 [1]; HT-29, 100 µM): 47 ± 1%
remaining activity at 100 µM (PD-L1 [1]; MCF7, MCF-7, 100 µM): 108 ± 13%
PD-L1 localisation (confocal images) (PD-L1 [2]): accumulates in the cytosol
Percentage of secreted IL-6 to the media (IL-6; MCF7 + THP-1 co-culture (1:5)): 156 ± 12%
Percentage of secreted IL-6 to the media (IL-6; MCF7 monoculture): 92 ± 4%
Percentage of secreted IL-6 to the media (IL-6; THP-1 monoculture): 183 ± 5%
viability at 100 µM (A-549): 75 ± 7%
inhibition rate of A-549 cell viability (A-549; co-cultured with Jurkat T cells, 100 μM): active
% c-Myc (c-Myc [3]; [5]): 66 ± 5%
% c-Myc (c-Myc [3]; [6]): 67 ± 8%
% c-Myc (c-Myc [3]; [7]): 65 ± 4%
c-Myc localisation (confocal images) (c-Myc [4]): preferentially in the nucleus of the cells

Cc1c(COc2ccc(CN3CCCCC3C(=O)O)cc2Br)cccc1-c1ccccc1 (centres unmarked) [BMS-8, reference compound]
remaining activity at 100 µM (PD-L1 [1]; A549, A-549, 100 µM): 70 ± 8%
remaining activity at 100 µM (PD-L1 [1]; HT-29, 100 µM): 68 ± 10%
remaining activity at 100 µM (PD-L1 [1]; MCF7, MCF-7, 100 µM): 77 ± 3%
PD-L1 localisation (confocal images) (PD-L1 [2]): located preferentially in the nucleus
Percentage of secreted IL-6 to the media (IL-6; MCF7 monoculture): 41 ± 65%
viability at 100 µM (A-549): 111 ± 9%
% c-Myc (c-Myc [3]; [5]): 142 ± 8%
% c-Myc (c-Myc [3]; [6]): 119 ± 9%
% c-Myc (c-Myc [3]; [7]): 130 ± 12%
c-Myc localisation (confocal images) (c-Myc [4]): not altered

COc1ccc(C(OCCc2ccc(CCn3cc(-c4cccc(Br)c4)nn3)cc2)(c2ccccc2)c2ccc(OC)cc2)cc1 [Compound 5, 1-(4-(2-(bis(4-methoxyphenyl)(phenyl)methoxy)ethyl)phenethyl)-4-(3-bromophenyl)-1H-1,2,3-triazole]
remaining activity at 100 µM (PD-L1 [1]; A549, A-549, 100 µM): 70 ± 16%
remaining activity at 100 µM (PD-L1 [1]; HT-29, 100 µM): 38 ± 1%
remaining activity at 100 µM (PD-L1 [1]; MCF7, MCF-7, 100 µM): 87 ± 1%
PD-L1 localisation (confocal images) (PD-L1 [2]): accumulated in the interface of cells and in the nucleus
Percentage of secreted IL-6 to the media (IL-6; MCF7 + THP-1 co-culture (1:5)): 137 ± 24%
Percentage of secreted IL-6 to the media (IL-6; MCF7 monoculture): 73 ± 29%
Percentage of secreted IL-6 to the media (IL-6; THP-1 monoculture): 173 ± 24%
viability at 100 µM (A-549): 105 ± 3%
% c-Myc (c-Myc [3]; [5]): 72 ± 9%
% c-Myc (c-Myc [3]; [6]): 66 ± 10%
% c-Myc (c-Myc [3]; [7]): 61 ± 11%
c-Myc localisation (confocal images) (c-Myc [4]): aggregated around the nucleus membrane
